We go through 38 molecules from patent US20240299385A1 (ReWind Therapeutics NV, priority 2021, published 2024).

The target in the assay is T1, human GPR17 receptor (Homo sapiens, UniProt Q13304).
T1 construct: host or cells: HEK-293
In words: Calcium mobilization functional assay (Fluo-8, FLIPR TETRA) in HEK-293 hGPR17 (Gα-q assay). Type of assay: cell-based. Particulars: antagonism of MDL29,951 (~EC80) induced Ca2+ signal; cell line (HEK-293 hGPR17 or HEK-293 Suchi5 hGPR17) not given. Summed up: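 Fluo-8-loaded HEK-293 hGPR17 cells (60 min dye loading, room temperature) were preincubated with compound for twenty minutes, then challenged with agonist MDL29,951 at ~EC80, 500 nM. Intracellular calcium release via Gα-q was recorded as FLIPR fluorescence for a further 2 minutes; compounds tested in duplicate.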
(Calcium assays in cells follow changes in intracellular calcium, usually with a dye or a luminescent sensor.)

By IC50 is commonly meant the concentration that gives 50% inhibition.

T1 sequence (Q13304 whole entry): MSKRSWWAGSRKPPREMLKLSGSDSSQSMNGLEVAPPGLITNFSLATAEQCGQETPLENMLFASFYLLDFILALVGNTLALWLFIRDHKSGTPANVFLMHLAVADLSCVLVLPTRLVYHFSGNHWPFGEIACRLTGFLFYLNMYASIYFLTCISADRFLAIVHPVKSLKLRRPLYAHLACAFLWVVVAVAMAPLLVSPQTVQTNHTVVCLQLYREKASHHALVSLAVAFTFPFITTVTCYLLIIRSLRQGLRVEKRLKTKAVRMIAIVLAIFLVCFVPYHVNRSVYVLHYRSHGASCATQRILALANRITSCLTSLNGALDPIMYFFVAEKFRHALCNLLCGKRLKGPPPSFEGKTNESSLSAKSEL

For the molecule `Cc1ccc(Cc2c[nH]cc2S(=O)(=O)Nc2ccc(C#N)cc2F)s1` [Cpd 486, N-(4-cyano-2-fluorophenyl)-4-[(5-methylthiophen-2-yl)methyl]-1H-pyrrole-3-sulfonamide], the IC50 lay within 0.5 to 5 µM.
The same measure for `COc1ccc(Cl)cc1-c1cc(S(=O)(=O)Nc2ccc(C#N)cc2F)c[nH]1` [Cpd 488, 5-(5-chloro-2-methoxyphenyl)-N-(4-cyano-2-fluorophenyl)-1H-pyrrole-3-sulfonamide]: 0.5 to 5 µM; for `N#Cc1ccc(NS(=O)(=O)c2c[nH]c(-c3c(F)cc(F)cc3F)c2)c(F)c1` [Cpd 489, N-(4-cyano-2-fluorophenyl)-5-(2,4,6-trifluorophenyl)-1H-pyrrole-3-sulfonamide]: below 0.5 µM; for `CC(=O)c1cccc(Cc2c[nH]cc2S(=O)(=O)Nc2ccc(C#N)cc2F)c1` [Cpd 490, 4-[(3-acetylphenyl)methyl]-N-(4-cyano-2-fluorophenyl)-1H-pyrrole-3-sulfonamide]: 5 to 50 µM.
In the case of `N#Cc1ccc(NS(=O)(=O)c2c[nH]c(Cc3ccccn3)c2)c(F)c1` [Cpd 491, N-(4-cyano-2-fluorophenyl)-5-(pyridin-2-ylmethyl)-1H-pyrrole-3-sulfonamide] it was 5 to 50 µM; in that of `N#Cc1cc(F)c(NS(=O)(=O)c2c[nH]c(-c3c(F)cc(F)cc3F)c2)cc1Cl` [Cpd 492, N-(5-chloro-4-cyano-2-fluorophenyl)-5-(2,4,6-trifluorophenyl)-1H-pyrrole-3-sulfonamide], 0.5 to 5 µM.
The same measure for `O=S(=O)(Nc1nc(F)c(OCCF)cc1F)c1c[nH]c(-c2ccccc2)c1` [Cpd 494, N-[3,6-difluoro-5-(2-fluoroethoxy)pyridin-2-yl]-5-phenyl-1H-pyrrole-3-sulfonamide]: below 0.5 µM.
In the case of `Cc1cc(NS(=O)(=O)c2c[nH]c(-c3c(F)cc(F)cc3F)c2)c(F)cc1C#N` [Cpd 495, N-(4-cyano-2-fluoro-5-methylphenyl)-5-(2,4,6-trifluorophenyl)-1H-pyrrole-3-sulfonamide], the IC50 is 0.5 to 5 µM.
As for `O=S(=O)(Nc1cc(F)c(OCC(F)F)cc1F)c1c[nH]cc1-c1cccc(F)c1` [Cpd 496, N-[4-(2,2-difluoroethoxy)-2,5-difluorophenyl]-4-(3-fluorophenyl)-1H-pyrrole-3-sulfonamide], the IC50 is 0.5 to 5 µM.
In the case of `N#Cc1cc(F)c(NS(=O)(=O)c2c[nH]cc2-c2cccc(F)c2)cc1F` [Cpd 497, N-(4-cyano-2,5-difluorophenyl)-4-(3-fluorophenyl)-1H-pyrrole-3-sulfonamide] it was below 0.5 µM.
Regarding `Cc1nc(-c2cc(S(=O)(=O)Nc3ccc(C#N)cc3F)c[nH]2)ccc1F` [Cpd 498, N-(4-cyano-2-fluorophenyl)-5-(5-fluoro-6-methylpyridin-2-yl)-1H-pyrrole-3-sulfonamide], the IC50 lay in the range of 0.5 to 5 µM.
Turning to `N#Cc1ccc(NS(=O)(=O)c2c[nH]c(-c3ccc(Cl)cn3)c2)c(F)c1` [Cpd 499, 5-(5-chloropyridin-2-yl)-N-(4-cyano-2-fluorophenyl)-1H-pyrrole-3-sulfonamide], the IC50 lay in the range of 5 to 50 µM.
For `Cc1ccc(-c2cc(S(=O)(=O)Nc3ccc(C#N)cc3F)c[nH]2)nc1` [Cpd 500, N-(4-cyano-2-fluorophenyl)-5-(5-methylpyridin-2-yl)-1H-pyrrole-3-sulfonamide], the IC50 was 5 to 50 µM.
For `O=S(=O)(Nc1nc(F)c(OCCF)cc1F)c1c[nH]cc1Cc1ccccc1` [Cpd 501, 4-benzyl-N-[3,6-difluoro-5-(2-fluoroethoxy)pyridin-2-yl]-1H-pyrrole-3-sulfonamide], the half-inhibitory concentration (IC50) fell in the range of 0.5 to 5 µM.
For the molecule `N#Cc1ccc(NS(=O)(=O)c2c[nH]c(-c3cccc(F)n3)c2)c(F)c1` [Cpd 502, N-(4-cyano-2-fluorophenyl)-5-(6-fluoropyridin-2-yl)-1H-pyrrole-3-sulfonamide], the IC50 is below 0.5 µM.
In the case of `Cc1ccnc(-c2cc(S(=O)(=O)Nc3ccc(C#N)cc3F)c[nH]2)c1` [Cpd 503, N-(4-cyano-2-fluorophenyl)-5-(4-methylpyridin-2-yl)-1H-pyrrole-3-sulfonamide] it was 0.5 to 5 µM; in that of `Cc1cccc(-c2cc(S(=O)(=O)Nc3ccc(C#N)cc3F)c[nH]2)n1` [Cpd 504, N-(4-cyano-2-fluorophenyl)-5-(6-methylpyridin-2-yl)-1H-pyrrole-3-sulfonamide], below 0.5 µM.
Consider `O=C1C=C(c2cc(S(=O)(=O)Nc3cc(F)c(C(F)(F)F)cc3F)c[nH]2)CC1` [Cpd 505, N-(2,5-difluoro-4-(trifluoromethyl)phenyl)-5-(3-oxocyclopent-1-en-1-yl)-1H-pyrrole-3-sulfonamide], for which the IC50 was 5 to 50 µM.
The same measure for `CN(C)c1ccccc1-c1cc(S(=O)(=O)Nc2ccc(C#N)cc2F)c[nH]1` [Cpd 506, N-(4-cyano-2-fluorophenyl)-5-[2-(dimethylamino)phenyl]-1H-pyrrole-3-sulfonamide]: 0.5 to 5 µM.
The same measure for `N#Cc1ccc(NS(=O)(=O)c2c[nH]c(-c3cc(Cl)c(F)cc3F)c2)c(F)c1` [Cpd 507, 5-(5-chloro-2,4-difluorophenyl)-N-(4-cyano-2-fluorophenyl)-1H-pyrrole-3-sulfonamide]: 0.5 to 5 µM; for `N#Cc1cc(F)c(NS(=O)(=O)c2c[nH]c(-c3cc(Cl)ccc3F)c2)cc1F` [Cpd 508, 5-(5-chloro-2-fluorophenyl)-N-(4-cyano-2,5-difluorophenyl)-1H-pyrrole-3-sulfonamide]: below 0.5 µM; for `N#Cc1cc(F)c(NS(=O)(=O)c2c[nH]c(-c3ccc(F)cc3)c2)cc1F` [Cpd 509, N-(4-cyano-2,5-difluorophenyl)-5-(4-fluorophenyl)-1H-pyrrole-3-sulfonamide]: below 0.5 µM.
As to `N#Cc1cc(F)c(NS(=O)(=O)c2c[nH]c(-c3ccc(F)cc3F)c2)cc1F` [Cpd 510, N-(4-cyano-2,5-difluorophenyl)-5-(2,4-difluorophenyl)-1H-pyrrole-3-sulfonamide], the IC50 is below 0.5 µM.
On to `Cc1cc(NS(=O)(=O)c2c[nH]c(-c3ccccc3F)c2)c(F)cc1C#N` [Cpd 511, N-(4-cyano-2-fluoro-5-methylphenyl)-5-(2-fluorophenyl)-1H-pyrrole-3-sulfonamide], for which the IC50 was below 0.5 µM.
In the case of `Cc1cc(NS(=O)(=O)c2c[nH]c(-c3cc(Cl)ccc3F)c2)c(F)cc1C#N` [Cpd 512, 5-(5-chloro-2-fluorophenyl)-N-(4-cyano-2-fluoro-5-methylphenyl)-1H-pyrrole-3-sulfonamide] it was below 0.5 µM; in that of `Cc1cc(NS(=O)(=O)c2c[nH]c(-c3ccc(F)cc3)c2)c(F)cc1C#N` [Cpd 513, N-(4-cyano-2-fluoro-5-methylphenyl)-5-(4-fluorophenyl)-1H-pyrrole-3-sulfonamide], 0.5 to 5 µM.
For `Cc1cc(NS(=O)(=O)c2c[nH]c(-c3ccc(F)cc3F)c2)c(F)cc1C#N` [Cpd 514, N-(4-cyano-2-fluoro-5-methylphenyl)-5-(2,4-difluorophenyl)-1H-pyrrole-3-sulfonamide], the IC50 is 0.5 to 5 µM.
In the case of `O=S(=O)(Nc1cc(F)c(OC(F)F)cc1F)c1c[nH]c(-c2cccc(Cl)n2)c1` [Cpd 515, 5-(6-chloropyridin-2-yl)-N-[4-(difluoromethoxy)-2,5-difluorophenyl]-1H-pyrrole-3-sulfonamide] it was below 0.5 µM; in that of `O=S(=O)(Nc1cc(F)c(OC(F)F)cc1F)c1c[nH]c(-c2cccc(Br)n2)c1` [Cpd 516, 5-(6-bromopyridin-2-yl)-N-[4-(difluoromethoxy)-2,5-difluorophenyl]-1H-pyrrole-3-sulfonamide], below 0.5 µM.
In the case of `O=S(=O)(Nc1cc(F)c(C(F)(F)F)cc1F)c1c[nH]c(-c2cccc3ccoc23)c1` [Cpd 517, 5-(1-benzofuran-7-yl)-N-[2,5-difluoro-4-(trifluoromethyl)phenyl]-1H-pyrrole-3-sulfonamide] it was 0.5 to 5 µM; in that of `COc1cscc1-c1cc(S(=O)(=O)Nc2cc(F)c(C(F)(F)F)cc2F)c[nH]1` [Cpd 518, N-[2,5-difluoro-4-(trifluoromethyl)phenyl]-5-(4-methoxythiophen-3-yl)-1H-pyrrole-3-sulfonamide], 0.5 to 5 µM; in that of `O=S(=O)(Nc1cc(F)c(C(F)(F)F)cc1F)c1c[nH]c(-c2cccc3c2OCC3)c1` [Cpd 519, N-[2,5-difluoro-4-(trifluoromethyl)phenyl]-5-(2,3-dihydro-1-benzofuran-7-yl)-1H-pyrrole-3-sulfonamide], 0.5 to 5 µM.
With `O=C1CCC(c2cc(S(=O)(=O)Nc3cc(F)c(C(F)(F)F)cc3F)c[nH]2)C1` (centres unmarked) [Cpd 520, N-(2,5-difluoro-4-(trifluoromethyl)phenyl)-5-(3-oxocyclopentyl)-1H-pyrrole-3-sulfonamide], the IC50 is 5 to 50 µM.
`CN(C)c1cccc(-c2cc(S(=O)(=O)Nc3ccc(C#N)cc3F)c[nH]2)c1` [Cpd 521, N-(4-cyano-2-fluorophenyl)-5-[3-(dimethylamino)phenyl]-1H-pyrrole-3-sulfonamide]: the IC50 lay within 5 to 50 µM.
Turning to `N#Cc1cc(F)c(NS(=O)(=O)c2c[nH]c(-c3ccccc3F)c2)cc1Cl` [Cpd 522, N-(5-chloro-4-cyano-2-fluorophenyl)-5-(2-fluorophenyl)-1H-pyrrole-3-sulfonamide], the IC50 was below 0.5 µM.
The same measure for `N#Cc1cc(F)c(NS(=O)(=O)c2c[nH]c(-c3cc(Cl)ccc3F)c2)cc1Cl` [Cpd 523, N-(5-chloro-4-cyano-2-fluorophenyl)-5-(5-chloro-2-fluorophenyl)-1H-pyrrole-3-sulfonamide]: below 0.5 µM; for `N#Cc1cc(F)c(NS(=O)(=O)c2c[nH]c(-c3ccc(F)cc3)c2)cc1Cl` [Cpd 524, N-(5-chloro-4-cyano-2-fluorophenyl)-5-(4-fluorophenyl)-1H-pyrrole-3-sulfonamide]: 0.5 to 5 µM.
The same measure for `N#Cc1cc(F)c(NS(=O)(=O)c2c[nH]c(-c3ccc(F)cc3F)c2)cc1Cl` [Cpd 525, N-(5-chloro-4-cyano-2-fluorophenyl)-5-(2,4-difluorophenyl)-1H-pyrrole-3-sulfonamide]: 0.5 to 5 µM.
